As a reminder, the IC50 is the point on the concentration scale where inhibition reaches its midpoint. Usually IC90 stands for the point of the concentration-response curve where the effect stands at 90%.

The assay concerns Plasmodium berghei. Nature of the assay: Luciferase/luciferin-expressing antifolate-resistant parasites were used to infect a culture of HepG2 cells that were pre-incubated with compounds. Infected hepatocytes emit light due to the luciferase reaction. Assay results are presented as the percent inhibition of light emission compared to control. […]. The class given is functional. Particulars: sporozoite; for IC90: read-out: LUCIFERASE INFECTION ASSAY - IC90.

Consider `Cc1ccc(NN2C(=O)C=C(c3ccccc3)C2=O)cc1`, for which the IC90 was > 11.9 µM. Further, for the setting “HEPG2TOX_HILL_SLOPE 1.4, HEPG2TOX_R_SQUARED 0.882, PBLUC_HILL_SLOPE 17, PBLUC_R_SQUARED 0.623, read-out: LUCIFERASE INFECTION ASSAY - IC50”, the IC50 was 11.2 µM.

For `CC(C)(C)c1csc(NC(=O)Nc2ccccc2)n1`, the IC90 was > 12 µM. The IC50 (HEPG2TOX_HILL_SLOPE 1.38, HEPG2TOX_R_SQUARED 0.755, PBLUC_HILL_SLOPE 7.68, PBLUC_R_SQUARED 0.272, read-out: LUCIFERASE INFECTION ASSAY - IC50) was found to be 9.6 µM.

In the case of `Clc1ccc(CSc2nncn2-c2ccc3c(c2)OCCO3)cc1`, the IC90 was 3.5 µM. Further, the IC50 (HEPG2TOX_HILL_SLOPE 1.37, HEPG2TOX_R_SQUARED 0.824, PBLUC_HILL_SLOPE 1.99, PBLUC_R_SQUARED 0.536, read-out: LUCIFERASE INFECTION ASSAY - IC50) came to 1.16 µM.

As for `Cc1ccc2c(c1)CCCN2C(=O)CCc1nc(O)c2ccccc2n1`, the IC90 is > 10 µM. Also, for the setting “HEPG2TOX_HILL_SLOPE 1.38, HEPG2TOX_R_SQUARED 0.978, PBLUC_HILL_SLOPE 0.881, PBLUC_R_SQUARED 0.443, read-out: LUCIFERASE INFECTION ASSAY - IC50”, the IC50 came to 3.89 µM.

As to `COc1ccc(NC(=O)c2ccoc2)cc1S(=O)(=O)Nc1ccc(Br)cc1`, the IC90 was determined as 1.62 µM. Also, the IC50 (HEPG2TOX_HILL_SLOPE 1.42, HEPG2TOX_R_SQUARED 0.956, PBLUC_HILL_SLOPE 2.25, PBLUC_R_SQUARED 0.81, read-out: LUCIFERASE INFECTION ASSAY - IC50) stood at 0.611 µM.

Take `O=C(c1cnc(Nc2cccc(Oc3ccccc3)c2)[nH]1)c1ccccc1O`: the IC90 came to 1.08 µM. The IC50 (HEPG2TOX_HILL_SLOPE 1.38, HEPG2TOX_R_SQUARED 0.947, PBLUC_HILL_SLOPE 15.8, PBLUC_R_SQUARED 0.824, read-out: LUCIFERASE INFECTION ASSAY - IC50) is 0.938 µM.

`COC(=O)c1c(C)[nH]c(-c2nc(NCc3ccc(C)cc3)sc2C)c1C`: the 90% effect concentration (IC90) worked out at 8.74 µM. Also, the IC50 (HEPG2TOX_HILL_SLOPE 1.4, HEPG2TOX_R_SQUARED 0.957, PBLUC_HILL_SLOPE 3.81, PBLUC_R_SQUARED 0.59, read-out: LUCIFERASE INFECTION ASSAY - IC50) was 4.91 µM.

Consider `COc1cc(-c2cnc3ccc(Cc4ccccc4)nn23)cc(OC)c1OC`, for which the IC90 was > 10 µM. Further, the IC50 (HEPG2TOX_HILL_SLOPE 1.4, HEPG2TOX_R_SQUARED 0.659, PBLUC_HILL_SLOPE 16.5, PBLUC_R_SQUARED 0.342, read-out: LUCIFERASE INFECTION ASSAY - IC50) amounted to 9.26 µM.

Turning to `C/C(=N\NC(=O)c1ccc(Cl)cc1)c1ccccc1O`, the IC90 was found to be 4.32 µM. In addition, the IC50 (HEPG2TOX_HILL_SLOPE 1.4, HEPG2TOX_R_SQUARED 0.87, PBLUC_HILL_SLOPE 14.3, PBLUC_R_SQUARED 0.668, read-out: LUCIFERASE INFECTION ASSAY - IC50) came out at 3.7 µM.

For the compound `Cc1ccc(Nc2nc(C[N+]3(Cc4csc(Nc5ccc(C)cc5)n4)CCN(Cc4ccc(C#N)cc4)CC3)cs2)cc1`, the IC90 is > 10 µM. For the same compound, where the note is “HEPG2TOX_HILL_SLOPE 1.4, HEPG2TOX_R_SQUARED 0.751, PBLUC_HILL_SLOPE 1.26, PBLUC_R_SQUARED 0.51, read-out: LUCIFERASE INFECTION ASSAY - IC50”, the IC50 worked out at 1.97 µM.

As for `c1nc(NCc2ccc(CN3CCOCC3)cc2)c2c3c(sc2n1)CCC3`, the IC90 was 1.55 µM. For the same compound, the IC50 (HEPG2TOX_HILL_SLOPE 1.37, HEPG2TOX_R_SQUARED 0.969, PBLUC_HILL_SLOPE 10, PBLUC_R_SQUARED 0.164, read-out: LUCIFERASE INFECTION ASSAY - IC50) was 1.25 µM.

With `Cc1ccccc1-n1c(SCC(=O)Nc2sc3c(c2C(N)=O)CCC3)nc2ccccc2c1=O`, the IC90 is > 10 µM. Moreover, the IC50 (HEPG2TOX_HILL_SLOPE 1.4, HEPG2TOX_R_SQUARED 0.675, read-out: LUCIFERASE INFECTION ASSAY - IC50) was > 10 µM.

In the case of `CCOc1cccc(-c2cn3c(-c4cccc(O)c4)cnc3cn2)c1`, the IC90 was 9.74 µM. The IC50 (HEPG2TOX_HILL_SLOPE 1.42, HEPG2TOX_R_SQUARED 0.867, PBLUC_HILL_SLOPE 1.9, PBLUC_R_SQUARED 0.651, read-out: LUCIFERASE INFECTION ASSAY - IC50) worked out at 3.05 µM.

As to `CCc1cc(=O)n2nc(-c3ccccc3)c(-c3ccccc3)c2[nH]1`, the IC90 was > 10.5 µM. The IC50 (HEPG2TOX_HILL_SLOPE 1.41, HEPG2TOX_R_SQUARED 0.964, PBLUC_HILL_SLOPE 4.43, PBLUC_R_SQUARED 0.223, read-out: LUCIFERASE INFECTION ASSAY - IC50) worked out at 7.37 µM.

Take `O=C(Nc1ccc(I)cc1)C1CCN(C(=O)c2ccncc2)CC1`: the IC90 was 2.8 µM. Further, the IC50 (HEPG2TOX_HILL_SLOPE 1.42, HEPG2TOX_R_SQUARED 0.857, PBLUC_HILL_SLOPE 1.13, PBLUC_R_SQUARED 0.975, read-out: LUCIFERASE INFECTION ASSAY - IC50) is 0.403 µM.

On to `CC/C(=N\NC(=O)COc1cccc(Br)c1)c1cc(F)ccc1O`, for which the IC90 is 9.51 µM. Moreover, the IC50 (HEPG2TOX_HILL_SLOPE 1.42, HEPG2TOX_R_SQUARED 0.962, PBLUC_HILL_SLOPE 3.55, PBLUC_R_SQUARED 0.0785, read-out: LUCIFERASE INFECTION ASSAY - IC50) amounted to 5.12 µM.

`Cc1ccc(N/N=C/c2c3ccccc3cc3ccccc23)cc1Cl`: the IC90 is 5.87 µM. Besides, the IC50 (HEPG2TOX_HILL_SLOPE 1.41, HEPG2TOX_R_SQUARED 0.742, PBLUC_HILL_SLOPE 1.25, PBLUC_R_SQUARED 0.657, read-out: LUCIFERASE INFECTION ASSAY - IC50) turned out to be 1.01 µM.

On to `COc1cccc(-c2cn3c(-c4ccc5c(ccn5C)c4)cnc3cn2)c1F`, for which the IC90 was found to be 0.145 µM. The IC50 (HEPG2TOX_HILL_SLOPE 1.41, HEPG2TOX_R_SQUARED 0.854, PBLUC_HILL_SLOPE 2.39, PBLUC_R_SQUARED 0.955, read-out: LUCIFERASE INFECTION ASSAY - IC50) was 0.0579 µM.

For `Cn1c(-c2ccccc2)c(C(=O)COc2ccc(-c3ccccc3)cc2)c2ccccc21`, the IC90 was > 10 µM. For the same compound, the IC50 (HEPG2TOX_HILL_SLOPE 1.37, HEPG2TOX_R_SQUARED 0.968, PBLUC_HILL_SLOPE 1.98, PBLUC_R_SQUARED 0.384, read-out: LUCIFERASE INFECTION ASSAY - IC50) is 4.87 µM.

For the compound `CC(C)c1cccc(-c2nc3ccnc(NCc4ccccn4)c3[nH]2)c1`, the IC90 was > 10 µM. Besides, the IC50 (HEPG2TOX_HILL_SLOPE 1.38, HEPG2TOX_R_SQUARED 0.883, PBLUC_HILL_SLOPE 3.5, PBLUC_R_SQUARED 0.343, read-out: LUCIFERASE INFECTION ASSAY - IC50) was found to be 6.01 µM.

`CCn1c2ccccc2c2cc(Nc3cc(-c4cc(OC)c(OC)c(OC)c4)ncn3)ccc21`: the IC90 turned out to be 1.29 µM. The IC50 (HEPG2TOX_HILL_SLOPE 1.37, HEPG2TOX_R_SQUARED 0.859, PBLUC_HILL_SLOPE 1.98, PBLUC_R_SQUARED 0.713, read-out: LUCIFERASE INFECTION ASSAY - IC50) turned out to be 0.426 µM.

For `O=C(Nc1nc2ccccc2[nH]1)c1cccnc1Nc1ccccc1F`, the IC90 came to 3.81 µM. Moreover, the IC50 (HEPG2TOX_HILL_SLOPE 1.38, HEPG2TOX_R_SQUARED 0.863, PBLUC_HILL_SLOPE 3.37, PBLUC_R_SQUARED 0.741, read-out: LUCIFERASE INFECTION ASSAY - IC50) was 1.98 µM.

Regarding `CCc1ccc(C(=O)Nc2cccc(NC(=O)c3ccccc3C)c2)cc1`, the IC90 was 1.14 µM. Moreover, the IC50 (HEPG2TOX_HILL_SLOPE 1.42, HEPG2TOX_R_SQUARED 0.919, PBLUC_HILL_SLOPE 4.98, PBLUC_R_SQUARED 0.845, read-out: LUCIFERASE INFECTION ASSAY - IC50) is 0.735 µM.

With `Cc1ccc(OCCNC(=O)c2[nH]c3c(c2C)C(=O)CCC3)c(C)c1`, the IC90 was found to be 2.74 µM. Further, the IC50 (HEPG2TOX_HILL_SLOPE 1.42, HEPG2TOX_R_SQUARED 0.935, PBLUC_HILL_SLOPE 2.91, PBLUC_R_SQUARED 0.758, read-out: LUCIFERASE INFECTION ASSAY - IC50) turned out to be 1.29 µM.

For the compound `Oc1c(C(Nc2nccs2)c2cccnc2)ccc2cccnc12` (stereo not drawn), the IC90 was 3.75 µM. In addition, the IC50 (HEPG2TOX_HILL_SLOPE 1.4, HEPG2TOX_R_SQUARED 0.615, PBLUC_HILL_SLOPE 3.49, PBLUC_R_SQUARED 0.793, read-out: LUCIFERASE INFECTION ASSAY - IC50) was found to be 2 µM.

As to `CCc1cccc2c(C(=O)COC(=O)/C(C#N)=C/c3ccc(OC)cc3)c[nH]c12`, the IC90 was > 10 µM. In addition, under “HEPG2TOX_HILL_SLOPE 1.4, HEPG2TOX_R_SQUARED 0.562, read-out: LUCIFERASE INFECTION ASSAY - IC50”, the IC50 is > 10 µM.

Regarding `COc1cc(C(=O)N/N=C2/C(=O)c3cccc4cccc2c34)cc(OC)c1OC`, the IC90 worked out at 3.67 µM. Also, the IC50 (HEPG2TOX_HILL_SLOPE 1.4, HEPG2TOX_R_SQUARED 0.956, PBLUC_HILL_SLOPE 15.6, PBLUC_R_SQUARED 0.526, read-out: LUCIFERASE INFECTION ASSAY - IC50) was 3.19 µM.

Take `NC(CCc1ccccc1)c1csc(Nc2cc(NCCCO)ncn2)n1` (stereo not drawn): the IC90 is > 8.58 µM. In addition, the IC50 (HEPG2TOX_HILL_SLOPE 1.38, HEPG2TOX_R_SQUARED 0.93, PBLUC_HILL_SLOPE 3.41, PBLUC_R_SQUARED 0.149, read-out: LUCIFERASE INFECTION ASSAY - IC50) was 6.73 µM.

Consider `Cn1/c(=N/C(=O)c2ccc(=O)[nH]c2)sc2ccccc21`, for which the IC90 is > 10 µM. The IC50 (HEPG2TOX_HILL_SLOPE 1.38, HEPG2TOX_R_SQUARED 0.749, PBLUC_HILL_SLOPE 1.3, PBLUC_R_SQUARED 0.494, read-out: LUCIFERASE INFECTION ASSAY - IC50) was determined as 2.61 µM.

The values are drawn from ChEMBL document CHEMBL4483862, “Open-source discovery of chemical leads for next-generation chemoprotective antimalarials” (2018).
